This note sets out measurements from US20110301079A1, “NEUROMEDIN U RECEPTOR AGONISTS AND USES THEREOF” (Instituto di Ricerche di Biologia Molecolare P. Angeletti …, priority 2007, published 2011).

Residues, ends and D or L forms follow the SMILES beside them. *: point of attachment. X1 = CC(C)CCC[C@@H](C)[C@H]1CC[C@H]2[C@@H]3CC=C4C[C@@H](OC(=O)C*)CC[C@]4(C)[C@H]3CC[C@]12C

The target of one test is T1, human NMUR1 (Homo sapiens, UniProt Q9HB89).
T1 construct: expressed in transfected cells; host or cells: FLP-In CHO cells and HEK-293 FLP-In cells (pcDNA5)
T1 sequence (Q9HB89 1-426): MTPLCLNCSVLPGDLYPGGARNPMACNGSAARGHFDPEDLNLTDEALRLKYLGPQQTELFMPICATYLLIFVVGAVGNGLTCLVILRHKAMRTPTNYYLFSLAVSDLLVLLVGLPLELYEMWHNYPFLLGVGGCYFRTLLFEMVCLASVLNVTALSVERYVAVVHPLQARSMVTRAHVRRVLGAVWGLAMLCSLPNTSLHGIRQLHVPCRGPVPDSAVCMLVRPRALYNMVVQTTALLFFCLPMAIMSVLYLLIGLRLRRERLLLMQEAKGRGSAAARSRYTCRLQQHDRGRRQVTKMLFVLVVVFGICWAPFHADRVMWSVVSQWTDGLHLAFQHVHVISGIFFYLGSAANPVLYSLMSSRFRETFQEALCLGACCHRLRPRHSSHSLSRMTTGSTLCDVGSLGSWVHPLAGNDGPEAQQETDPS
Put plainly: FLIPR calcium mobilization assay, human NMUR1-expressing cell line. In kind it is cell-based. The conditions noted are these: for % Activity: human NMUR1, maximum response at 1 μM compared to the human NMU-25 response at the same concentration. The source says: (§1) Human, mouse or rat cDNAs encoding NMUR1 or NMUR2 (as described in Howard et al. Nature 406: 70-74 (2000) were subcloned in pcDNA5 (Invitrogen) and transfected into FLP-In CHO cells and HEK-293 FLP-In cells purchased from Invitrogen (Carlsbad, Calif.) using lipofectamine (Invitrogen). The Flp-In system allows integration and expression of a particular gene of interest at a specific genomic location utilizing the Flp recombinase from yeast. The transfected cells were selected by growth in medium containing 200 μg/mL hygromycin (Invitrogen). Populations were frozen at early passage numbers, and these stocks were used for further studies. Stable clones that expressed the mRNAs were identified functionally by FLIPR as well as by RT-PCR. […] Two different rodent NMUR1 cell lines were thus generated: one with the codon as predicted from the genomic databases and another cell line with an engineered methionine (ATG) as the start codon. The dog NMU receptors were also cloned from intestine RNA (NMUR1) and brain (NMUR2) and stable cell lines were generated as used for the human and rodent cell lines. […] To ensure high levels of expression in a heterologous system, a dog NMUR1 cell line was generated that contains an ATG as the start codon. Additionally, stable cell lines expressing the human receptors were generated in HEK-293/aeq 17 cells which stably express the aequorin gene under the CMV promoter. The human NMUR2 cDNA was cloned into pcDNA3.1 and human NMUR1 was subcloned into pIRES-puro (Clontech, Mountain View, Calif.), after transfection cells were selected in media containing G418 and either hygromycin (NMUR2) or puromycin (NMUR1).
(§2) The NMU receptors signal primarily through Gαq/11 proteins; therefore calcium mobilization assays can be utilized for functional activity.
(§3) Stable cell lines expressing human and or rodent NMUR1 or human NMUR2 receptors are plated at a density of 12,000 cells per well overnight on poly-lysine coated 384-well black-walled plates. The following day, the media is removed from the plates and the cells were subsequently loaded with Fluo-3 (Molecular Probes), a calcium sensitive dye, diluted in FLIPR buffer (1× Hank's buffered saline containing 20 mM HEPES, 0.1% BSA, 2.5 mM probenecid (Sigma) and 1.6 mM TR40). All reagents are from Invitrogen unless otherwise noted. Peptide stocks are resuspended in DMSO at a stock concentration of 2 mM and diluted in FLIPR buffer on the day of the experiment to a 4 μM working stock solution.
(§4) After a 90 minute incubation at room-temperature, cell plates are loaded onto a FLIPR (Molecular Devices) to monitor cellular fluorescence (excitation=488 nm; emission=540 nm) before and after compound/peptide addition. Eight to twelve point dose responses are tested on NMUR-expressing cell lines using FLIPR with 1 μM peptide as the highest dose. The response after peptide addition is taken as the maximum fluorescence units minus the fluorescence immediately prior to stimulation for each well. EC50 values are calculated using GraphPad Prism (San Diego, Calif.) software.
(§5) Percent activity refers to the maximum response at 1 μM compared to the human NMU-25 response at the same concentration.
For orientation: Calcium flux is commonly read through the fluorescence of an indicator in the cells.

A further test concerns the target T2, dog NMUR2 (Canis lupus familiaris, UniProt A0A8I3MN59).
T2 construct: expressed in transfected cells
The experiment in a line: FLIPR calcium mobilization assay, dog NMUR2 cell line. In kind it is cell-based. The conditions noted are these: for % Activity: dog NMUR2, maximum response at 1 μM compared to the human NMU-25 response at the same concentration.
From the text: as §1, §2, §3, §4, §5

For a further test, the target named is T3, mouse NMUR1-ATG (Mus musculus, UniProt O55040).
T3 construct: expressed in transfected cells; host or cells: FLP-In CHO cells and HEK-293 FLP-In cells (pcDNA5)
T3 sequence (O55040 1-428): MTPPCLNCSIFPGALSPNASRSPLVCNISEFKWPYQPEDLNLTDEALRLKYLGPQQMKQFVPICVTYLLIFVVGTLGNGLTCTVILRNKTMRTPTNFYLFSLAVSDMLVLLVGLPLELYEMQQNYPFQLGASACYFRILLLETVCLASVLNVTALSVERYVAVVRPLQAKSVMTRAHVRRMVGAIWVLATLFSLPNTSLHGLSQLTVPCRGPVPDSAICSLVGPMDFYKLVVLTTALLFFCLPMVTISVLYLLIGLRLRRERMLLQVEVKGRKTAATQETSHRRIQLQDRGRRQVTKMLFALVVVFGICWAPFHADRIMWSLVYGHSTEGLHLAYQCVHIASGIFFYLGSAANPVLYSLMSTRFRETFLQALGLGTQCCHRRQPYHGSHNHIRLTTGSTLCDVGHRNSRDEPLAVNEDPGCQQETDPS
Put plainly: FLIPR calcium mobilization assay, mouse NMUR1-ATG cell line. The conditions noted are these: for % Activity: maximum response at 1 μM compared to the human NMU-25 response at the same concentration. Format: cell-based.
From the text: as §1, §2, §3, §4, §5

In another test the test system is mice. The experiment in a line: Acute subcutaneous administration of NMS analogs, daily food intake and body weight. Format: in vivo. The conditions noted are these: for food intake: lipidated analogs compared to NMS1, FIG. 10A; for body weight: lipidated analogs compared to NMS1, FIG. 10B.
The next test concerns the target T4, human NMUR2 (Homo sapiens, UniProt Q9GZQ4).
T4 construct: expressed in transfected cells; host or cells: FLP-In CHO cells and HEK-293 FLP-In cells (pcDNA5)
Put plainly: FLIPR calcium mobilization assay, human NMUR2-expressing cell line. The conditions noted are these: for % Activity: human NMUR2, maximum response at 1 μM compared to the human NMU-25 response at the same concentration. Format: cell-based.
From the text: as §1, §2, §3, §4, §5

Another test deals with T5, mouse NMUR2 (Mus musculus, UniProt Q8BZ39).
T5 construct: expressed in transfected cells; host or cells: FLP-In CHO cells and HEK-293 FLP-In cells (pcDNA5)
The experiment in a line: FLIPR calcium mobilization assay, mouse NMUR2 cell line. In kind it is cell-based. The conditions noted are these: for % Activity: mouse NMUR2, maximum response at 1 μM compared to the human NMU-25 response at the same concentration.
From the text: as §1, §2, §3, §4, §5

The test system of another test is dog NMUR1-ATG. The experiment in a line: FLIPR calcium mobilization assay, dog NMUR1-ATG cell line. The conditions noted are these: for EC50: FLIPR; for % Activity: maximum response at 1 μM compared to the human NMU-25 response at the same concentration. Format: cell-based.
From the text: as §1, §2, §3, §4, §5

T2 sequence (A0A8I3MN59 1-378): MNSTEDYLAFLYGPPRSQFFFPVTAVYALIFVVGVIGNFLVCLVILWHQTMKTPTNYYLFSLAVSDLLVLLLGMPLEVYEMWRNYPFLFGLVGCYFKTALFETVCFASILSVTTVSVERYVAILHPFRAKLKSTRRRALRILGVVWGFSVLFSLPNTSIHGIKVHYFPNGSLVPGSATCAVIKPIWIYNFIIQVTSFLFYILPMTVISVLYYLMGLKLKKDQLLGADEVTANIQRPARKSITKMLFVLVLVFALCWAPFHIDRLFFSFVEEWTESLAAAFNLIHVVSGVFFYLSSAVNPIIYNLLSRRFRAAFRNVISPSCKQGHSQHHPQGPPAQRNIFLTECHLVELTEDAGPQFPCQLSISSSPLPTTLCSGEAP
T4 sequence (Q9GZQ4 whole entry): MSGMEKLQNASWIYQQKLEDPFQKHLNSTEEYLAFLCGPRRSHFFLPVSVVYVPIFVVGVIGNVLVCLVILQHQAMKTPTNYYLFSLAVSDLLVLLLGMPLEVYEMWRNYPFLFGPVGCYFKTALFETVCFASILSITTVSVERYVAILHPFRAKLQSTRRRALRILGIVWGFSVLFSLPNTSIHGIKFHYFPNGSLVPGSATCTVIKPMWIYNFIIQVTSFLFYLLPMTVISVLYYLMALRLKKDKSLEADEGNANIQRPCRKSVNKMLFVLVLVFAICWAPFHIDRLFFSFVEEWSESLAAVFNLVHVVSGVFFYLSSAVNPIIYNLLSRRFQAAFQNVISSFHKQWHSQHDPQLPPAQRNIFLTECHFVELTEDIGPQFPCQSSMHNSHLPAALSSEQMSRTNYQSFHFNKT
T5 sequence (Q8BZ39 whole entry): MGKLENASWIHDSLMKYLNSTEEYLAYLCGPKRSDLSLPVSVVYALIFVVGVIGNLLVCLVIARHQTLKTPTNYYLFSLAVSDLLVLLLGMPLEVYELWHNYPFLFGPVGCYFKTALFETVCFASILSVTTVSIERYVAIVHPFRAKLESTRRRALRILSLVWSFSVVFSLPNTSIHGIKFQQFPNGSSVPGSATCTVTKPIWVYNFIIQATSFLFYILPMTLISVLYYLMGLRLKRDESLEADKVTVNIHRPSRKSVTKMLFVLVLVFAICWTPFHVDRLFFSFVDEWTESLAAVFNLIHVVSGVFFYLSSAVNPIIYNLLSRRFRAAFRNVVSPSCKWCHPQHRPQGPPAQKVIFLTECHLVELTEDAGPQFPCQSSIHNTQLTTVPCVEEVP

The EC50 is the concentration giving half of the maximal effect. With `CC[C@H](C)[C@H](NC(=O)[C@H](CSCC(=O)O[C@H]1CC[C@@]2(C)C(=CC[C@H]3[C@@H]4CC[C@H]([C@H](C)CCCC(C)C)[C@@]4(C)CC[C@@H]32)C1)NC(C)=O)C(=O)N[C@@H](CC(C)C)C(=O)N[C@@H](CCC(N)=O)C(=O)N[C@@H](CCCNC(=N)N)C(=O)NCC(=O)N[C@@H](CO)C(=O)NCC(=O)N[C@H](C(=O)N[C@@H](C)C(=O)N[C@@H](C)C(=O)N[C@H](C(=O)N[C@@H](CC(=O)O)C(=O)N[C@@H](Cc1ccccc1)C(=O)N[C@H](C(=O)N[C@@H](CCCCN)C(=O)N[C@@H](CCCCN)C(=O)N[C@@H](CC(=O)O)C(=O)N[C@@H](Cc1c[nH]cn1)C(=O)N[C@H](C(=O)N[C@@H](C)C(=O)N[C@H](C(=O)N[C@@H](Cc1c[nH]c2ccccc12)C(=O)NCC(=O)N[C@@H](CCCNC(=N)N)C(=O)N1CCC[C@H]1C(=O)N[C@@H](Cc1ccccc1)C(=O)N[C@@H](Cc1ccccc1)C(=O)N[C@@H](CC(C)C)C(=O)N[C@@H](Cc1ccccc1)C(=O)N[C@@H](CCCNC(=N)N)C(=O)N1CCC[C@H]1C(=O)N[C@@H](CCCNC(=N)N)C(=O)N[C@@H](CC(N)=O)C(N)=O)[C@@H](C)O)[C@@H](C)O)[C@@H](C)O)C(C)C)[C@@H](C)O` [NMS2] (Ac-C(X1)ILQRGSGTAAVDFTKKDHTATWGRPFFLFRPRN-NH2), the “% Activity” value on human NMUR1 amounted to 11%; on dog NMUR2, 84%; at mouse NMUR1-ATG, 39%; on human NMUR2, 16%; at mouse NMUR2, 32%; in the test with dog NMUR1-ATG it was 46%. For the same molecule, in the test on mice, the food intake result is “significantly reduce”. The body weight entry with mice is “significantly reduce”. Also, in the test with dog NMUR1-ATG, the EC50 was no less than 1000 nM.
In the case of `CCCCCCCCCCCCCCCC(=O)N[C@H](C(=O)N[C@@H](CC(C)C)C(=O)N[C@@H](CCC(N)=O)C(=O)N[C@@H](CCCNC(=N)N)C(=O)NCC(=O)N[C@@H](CO)C(=O)NCC(=O)N[C@H](C(=O)N[C@@H](C)C(=O)N[C@@H](C)C(=O)N[C@H](C(=O)N[C@@H](CC(=O)O)C(=O)N[C@@H](Cc1ccccc1)C(=O)N[C@H](C(=O)N[C@@H](CCCCN)C(=O)N[C@@H](CCCCN)C(=O)N[C@@H](CC(=O)O)C(=O)N[C@@H](Cc1c[nH]cn1)C(=O)N[C@H](C(=O)N[C@@H](C)C(=O)N[C@H](C(=O)N[C@@H](Cc1c[nH]c2ccccc12)C(=O)NCC(=O)N[C@@H](CCCNC(=N)N)C(=O)N1CCC[C@H]1C(=O)N[C@@H](Cc1ccccc1)C(=O)N[C@@H](Cc1ccccc1)C(=O)N[C@@H](CC(C)C)C(=O)N[C@@H](Cc1ccccc1)C(=O)N[C@@H](CCCNC(=N)N)C(=O)N1CCC[C@H]1C(=O)N[C@@H](CCCNC(=N)N)C(=O)N[C@@H](CC(N)=O)C(N)=O)[C@@H](C)O)[C@@H](C)O)[C@@H](C)O)C(C)C)[C@@H](C)O)[C@@H](C)CC` [NMS5] (HELM PEPTIDE1{[CCCCCCCCCCCCCCCC(=O)[*:2]].I.L.Q.R.G.S.G.T.A.A.V.D.F.T.K.K.D.H.T.A.T.W.G.R.P.F.F.L.F.R.P.R.N.[am]}$$$$V2.0), the EC50 on human NMUR1 (human NMUR1, FLIPR) is 248 nM; at dog NMUR2 (dog NMUR2, FLIPR), 18.8 nM; on mouse NMUR1-ATG (FLIPR) it was 12.5 nM; at human NMUR2 (human NMUR2, FLIPR), 214 nM; at mouse NMUR2 (mouse NMUR2, FLIPR), 40.1 nM; with dog NMUR1-ATG, no less than 1000 nM. Besides, the “% Activity” value on human NMUR1 worked out at 85%; on dog NMUR2, 100%; at mouse NMUR1-ATG, 83%; at human NMUR2, 93%; at mouse NMUR2, 78%; with dog NMUR1-ATG, 82%. For the same molecule, the food intake entry in the test on mice is on record as “significantly reduce”. The body weight result with mice was “significantly reduce”.
